Data taken from PubChem BioAssay AID488890 (Southern Research Specialized Biocontainment Screening …, 2010).
Inconclusive results are not listed. The source made the active and inactive calls. How the calls were made is not given here.

What follows are molecules tested on Mycobacterium tuberculosis non-replicating, growth inhibition (assay: growth inhibition of non-replicating M. tuberculosis (AID 488890)).
Work on O=C(c1ccc(Cl)cc1)c1nnc(-c2ccncc2)o1 yielded an IC50 of 3.32 µM.
In the case of CCOC(=O)C1=C(C)C/C(=N\NC(=O)c2ccccc2O)CC1, the IC50 is reported as 4.22 µM.
In the case of Cc1ccc(C(=O)CCNc2ccc(F)c(Cl)c2)o1, the IC50 is reported as 11 µM (inactive).
CCOC(=O)c1ccc(N=CC2=C(O)CC(C)(C)CC2=O)cc1 showed an IC50 of 3.85 µM.
With Cc1cc(OCCOCCNCc2ccccc2)ccc1C(C)C the IC50 was 15.1 µM (inactive).
C=CCc1ccc2oc(C(=O)OCC)cc(=O)c2c1O was tested, and the IC50 was 1.26 µM.
Work on COC(=O)[C@@H](NC(=O)c1cc(COc2cncc(Cl)c2)on1)c1ccccc1 yielded an IC50 of 5.58 µM.
Molecule Cc1[nH]c2ccccc2c1C(=O)C(C)OC(=O)c1ccc([N+](=O)[O-])o1 (centres undefined) has an IC50 of 1.07 µM.
For Cc1c(C(=O)N(C)C)sc2nc(-c3ccccn3)[nH]c(=O)c12, the IC50 was 32.7 µM (inactive).
With Cc1ccc(-c2nnc(COC(=O)c3cccs3)o2)cc1 the IC50 was 13.8 µM (inactive).
Fc1ccc(-c2ccc(CNCc3ccccn3)o2)cc1Cl gave an IC50 of 8.76 µM.
Work on O=[N+]([O-])c1cc2oc3c(c2c(C=NCc2ccccc2)c1O)CCCC3 yielded an IC50 of 2.89 µM.
For Nc1ccccc1C(=O)NNC1=C(C(=O)C(F)(F)F)CCC1, the IC50 was 14.7 µM (inactive).
CCSc1ncc(/C=N/Nc2ccc(Cl)cc2)n1C was tested, and the IC50 was 6.58 µM.
For CN(C)c1c2ccccc2nc2c(F)c(F)c(F)c(F)c12, the IC50 was 5.75 µM.
In the case of C=C1CCC[C@]2(C)C[C@H]3OC(=O)C(CNC(C)CCCC(C)C)[C@H]3CC12 (some centres undefined), the IC50 is reported as 15.3 µM (inactive).
With COc1ccc(NC(=O)c2cnc(SC)nc2)cc1 the IC50 was 28.9 µM (inactive).
With COc1cc(C=O)ccc1OCCOCCOc1ccc(Cl)cc1 the IC50 was 27.8 µM (inactive).
Work on CC(C)c1ccc(N2C(=O)NC(=O)/C(=C/C=C/c3ccco3)C2=O)cc1 yielded an IC50 of 8.65 µM.
With Cc1cnc(C(=O)NNC(=O)c2ccc(Br)cc2)cn1 the IC50 was 4.88 µM.
CC(C)(C)NCC1(CO)SC(N)=NC1=O (centres undefined) was tested, and the IC50 was 15.5 µM (inactive).
CCOc1ccc(C(=O)N/N=C(/C)C2C(=O)c3ccccc3C2=O)cc1 was tested, and the IC50 was 0.47 µM.
In the case of CCOC(=O)Cc1csc(NC(=O)COc2ccc3c(c2)CCC3)n1, the IC50 is reported as 13.5 µM (inactive).
Work on O=[N+]([O-])c1ccc2nc(SCc3cn4ccccc4n3)[nH]c2c1 yielded an IC50 of 8.98 µM.
For O=C(CCC(=O)Nc1ccc(Cl)cc1Cl)N/N=C/c1ccc([N+](=O)[O-])o1, the IC50 was 2.18 µM.
With CCCOc1ccc(C(=O)NNC(=S)NC(=O)c2ccco2)cc1 the IC50 was 3.83 µM.
In the case of CCC(=O)Nc1nc2ccccc2n1Cc1ccc(C)cc1, the IC50 is reported as 20.5 µM (inactive).
CCN1CCN(c2ccc(S(=O)(=O)N3CCCCC3)cc2NC(=O)c2ccc([N+](=O)[O-])o2)CC1 was tested, and the IC50 was 12.6 µM (inactive).
O=C(N/N=C/c1ccc(OC(=O)c2cccs2)cc1)c1ccccn1 showed an IC50 of 2.94 µM.
CCOC(=O)c1ccc(COC(=O)c2ccc(-c3nnc(-c4ccccc4)o3)cc2)o1 gave an IC50 of 6.43 µM.
Cc1ccc(CSc2nnc(-c3cccnc3)o2)cc1 gave an IC50 of 1.49 µM.
For Cc1cccc(C2=N/C(=C\c3cccnc3)C(=O)O2)c1, the IC50 was 12.8 µM (inactive).
In the case of Cc1cccc(NCc2ccc([N+](=O)[O-])s2)c1, the IC50 is reported as 22.2 µM (inactive).
Molecule O=C(N/N=C/C(Br)=C/c1ccccc1)c1ccncc1 has an IC50 of 3.89 µM.
CCOc1cc(-c2nnc(NC(=O)c3ccco3)o2)cc(OCC)c1OCC was tested, and the IC50 was 21.6 µM (inactive).
In the case of O=C(N/N=C\c1ccc([N+](=O)[O-])o1)c1cncc(Br)c1, the IC50 is reported as 8.55 µM.
Work on CCOC(=O)c1cnc(Nc2nc3ccccc3o2)nc1CSC(=S)N1CCCCC1 yielded an IC50 of 1.49 µM.
Work on CC(NCC(O)COCCC12CC3CC(CC(C3)C1)C2)c1ccccc1 (centres undefined) yielded an IC50 of 7.88 µM.
With Cc1ccc(NC(=O)c2ccc([N+](=O)[O-])o2)cc1S(=O)(=O)N1CCOCC1 the IC50 was 13.9 µM (inactive).
COc1ccc(S(=O)(=O)N(C(C)=O)c2ccc(OC(C)=O)c3ccccc23)cc1[N+](=O)[O-] was tested, and the IC50 was 13.6 µM (inactive).
In the case of O=C1NC(=O)C(=Cc2ccc(-c3ccc(Cl)cc3)o2)C(=O)N1, the IC50 is reported as less than 0.1 µM.
With c1ccc(-c2nc3ccccn3c2NC2CCCC2)nc1 the IC50 was 24.9 µM (inactive).
COc1ccc(/C=N/NC(=O)c2ccncc2)cc1CN1CCOCC1 was tested, and the IC50 was 4.37 µM.
For NC(N)=Nc1nc(-c2ccccc2)c2ccccc2n1, the IC50 was 12.8 µM (inactive).
